{"source": "patent US7381546B2", "about": "“Polyketides and their synthesis and use” (Biotica Technology Limited, priority 1998, dated 2008)", "system": "human lymphoblastoid cell lines 536", "assay": "Tritiated thymidine incorporation (DNA synthesis) bioassay in 536 cells", "type": "cell-based", "conditions": "for IC50: after 24 and 48 hours drug exposure, radiolabelled thymidine incorporation (FIG. 4), read-out: ID50% concentration-dependent inhibition of DNA synthesis", "method": "Rapamycin induces a specific cell cycle arrest in G1 in the cell line 536, which is a human B lymphocytic line immortalised by Epstein Barr virus infection. The potency of each analogue was compared to that of rapamycin using the 536 cells as a bioassay. The 536 cells (obtained from the human genetic mutant cell repository, Camden, N.J., USA) were cultured in Iscoves medium supplemented with 10% fetal calf serum. For bioassay, 536 cells were seeded into 96 well microtitre plates at 10,000 per well in 100 μl of growth medium. Drug stocks of 1 mM in DMSO were prepared and further dilutions were made to give a constant final concentration of 0.1% DMSO in growth medium. Control cultures were treated with 0.1% DMSO in growth medium; experimental cultures received a final concentration of 10^−7M, 10^−8M, 10^−9M or 10^−10M rapamycin or rapamycin analogue. Each culture was set up in triplicate and replicate plates were labelled with 1 μCi tritiated thymidine (Amersham International, specific activity 70 Ci/mM) per well for 3 h at either Oh; 24 h; or 48 h incubation with drugs. At the respective time points the cultures were harvested onto glass fibre paper to trap the DNA following water lysis; free nucleotides were washed away. Radioactivity incorporated into the filter discs/trapped DNA was counted in a Packard scintillation counter using biodegradable scintillation fluid.\nThe dose response of human lymphoblastoid cell lines 536 was measured. […] This implies that none of the compounds were toxic to the 536 cell line.", "note": "Where two headings read alike, the source gives them in different places."}
{"compound": "4-hydroxy-prolyl-26-demethoxy-rapamycin", "values": [{"measurement": "effect on DNA synthesis (mean cpm of radiolabelled thymidine incorporated)", "setting": "0-3 h drug exposure, up to 100 nM (FIG. 3)", "result": "no appreciable effect"}, {"measurement": "inhibition of DNA synthesis", "setting": "at 100 nM, after 24 and 48 hours (FIG. 4)", "result": "< 50", "unit": "%"}]}
{"compound": "COC1CC2CCC(C)C(O)(O2)C(=O)C(=O)N2CCCC2C(=O)OC(C(C)CC2CCC(O)C(OC)C2)CC(=O)C(C)/C=C(\\C)C(O)C(OC)C(=O)C(C)CC(C)/C=C/C=C/C=C/1C", "note": "(stereo not shown) [prolylrapamycin]", "values": [{"measurement": "IC50", "result": 3, "unit": "nM"}]}
{"compound": "CO[C@H]1C[C@@H]2CC[C@@H](C)[C@@](O)(O2)C(=O)C(=O)N2CCCC[C@H]2C(=O)O[C@H]([C@H](C)C[C@@H]2CC[C@@H](O)[C@H](OC)C2)CC(=O)[C@H](C)/C=C(\\C)[C@@H](O)[C@@H](OC)C(=O)[C@H](C)C[C@H](C)/C=C/C=C/C=C/1C", "note": "[rapamycin, reference compound]", "values": [{"measurement": "IC50", "setting": "Homo sapiens, Lymphoblastoid cell", "result": 1, "unit": "nM"}]}
